# Where “and” joins values, the source holds several entries; their conditions need not be identical. Equal values may be shown once.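 Assay format: 96-well plates, 48-hour exposure. At the GI50, growth is halved. Definition used: TGI = concentration required for complete inhibition of growth.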
# How the values were obtained:
# Assay in all cases: growth of human tumour cells (NCI), 48 h
# NCI-H460 lung = tested on: NCI-H460 lung
# HCT-15 colon = tested on: HCT-15 colon
# UO-31 renal = tested on: UO-31 renal
# SF-539 CNS = tested on: SF-539 CNS
# HT29 colon = tested on: HT29 colon
# OVCAR-4 ovarian = tested on: OVCAR-4 ovarian
# T-47D breast = tested on: T-47D breast
# 786-0 renal = tested on: 786-0 renal
# HCT-116 colon = tested on: HCT-116 colon
# UACC-62 melanoma = tested on: UACC-62 melanoma
SMILES,GI50 (NCI-H460 lung),TGI (NCI-H460 lung),GI50 (HCT-15 colon),TGI (HCT-15 colon),GI50 (UO-31 renal),TGI (UO-31 renal),GI50 (SF-539 CNS),TGI (SF-539 CNS),GI50 (HT29 colon),GI50 (OVCAR-4 ovarian),TGI (OVCAR-4 ovarian),GI50 (T-47D breast),GI50 (786-0 renal),GI50 (HCT-116 colon),GI50 (UACC-62 melanoma),TGI (UACC-62 melanoma),TGI (HT29 colon),TGI (T-47D breast),TGI (786-0 renal),TGI (HCT-116 colon)
COC(=O)C[C@](O)(CCCC(C)(C)O)C(=O)O[C@@H]1C(OC)=C[C@]23CCCN2CCc2cc4c(cc2[C@H]13)OCO4,0.016 µM and < 0.01 µM,0.27 µM and 0.088 µM,0.0944 µM,1.85 µM and 4.71 µM,0.181 µM,2.01 µM and 3.13 µM,0.0195 µM,0.264 µM and 0.0539 µM,0.0183 µM,0.0221 µM,1.15 µM and 0.149 µM,0.0297 µM,0.033 µM,0.134 µM and 0.0153 µM,0.03 µM,0.712 µM and 0.137 µM,,,,
Nc1ccc([N+](=O)[O-])cc1N=C/C=C/c1ccccc1,11.3 µM,41.9 µM,13.5 µM,> 100 µM,4.31 µM,71.4 µM,21.7 µM,> 100 µM,5.05 µM,11.2 µM,90.2 µM,15.7 µM,23.3 µM,7.86 µM,11.9 µM,> 100 µM,67.1 µM,77.7 µM,> 100 µM,25 µM
CO/N=C(/C)c1cccc(Nc2cc(-n3nnc4ccccc43)nc3ccccc23)c1,28 µM,> 100 µM,31.8 µM,> 100 µM,> 100 µM,> 100 µM,45.5 µM,> 100 µM,11.8 µM,65.6 µM,> 100 µM,> 100 µM,45.5 µM,27 µM,25.2 µM,> 100 µM,> 100 µM,> 100 µM,> 100 µM,> 100 µM
CSC1=Nc2c(c(C)c(C)n2COC(CO)CO)C2=NC(=O)C(C)N12 (centres undefined),> 100 µM,> 100 µM,> 100 µM,> 100 µM,> 100 µM,> 100 µM,> 100 µM,> 100 µM,> 100 µM,> 100 µM,> 100 µM,> 100 µM,> 100 µM,> 100 µM,> 100 µM,> 100 µM,> 100 µM,> 100 µM,> 100 µM,> 100 µM
COc1cc(C(=O)N2CCN(C=O)C2=S)cc(OC)c1OC,34 µM,> 100 µM,25.6 µM,73.6 µM,,3.36 µM,21.3 µM,43.2 µM,26.7 µM,24.1 µM,58.9 µM,20.7 µM,12.7 µM,35.6 µM,15.8 µM,30.4 µM,66.4 µM,90.6 µM,28 µM,> 100 µM
O=C(Nc1ccc2ncccc2c1)Nc1ccc2ncccc2c1,,> 100 µM,,> 100 µM,,> 100 µM,,> 100 µM,,,> 100 µM,,,,,> 100 µM,> 100 µM,> 100 µM,> 100 µM,> 100 µM
C/C=C(\C)C(=O)O[C@H]1C=CC(=O)O[C@H]1CCC(=O)[C@H](C)O,19.2 µM,43.2 µM,11.6 µM,27.1 µM,15.9 µM,31.2 µM,19.2 µM,35.8 µM,8.61 µM,11.9 µM,25.4 µM,10.4 µM,14.9 µM,2.87 µM,14.1 µM,27.7 µM,23.5 µM,32.3 µM,30.1 µM,11.2 µM
CCOC(=O)c1ccc(NC(=O)Oc2ccc3c(C)cc(=O)oc3c2)cc1,,> 100 µM,,> 100 µM,,> 100 µM,,> 100 µM,,,> 100 µM,,,,,> 100 µM,> 100 µM,78 µM,> 100 µM,82.9 µM
CC[As](CC)SC[C@H](C)C(=O)N1CCC[C@H]1C(=O)O,0.418 µM,2.17 µM,0.027 µM,0.194 µM,0.024 µM,0.0933 µM,0.0291 µM,0.136 µM,0.339 µM,0.334 µM,1.13 µM,0.414 µM,0.021 µM,0.0419 µM,0.149 µM,0.538 µM,> 100 µM,1.96 µM,0.0743 µM,0.162 µM
C=C1C(=O)OC2CC(C)C(C(CC(C)=O)OC(C)=O)=CCC12 (centres undefined),,41.9 µM,,7.96 µM,,29.7 µM,,69.3 µM,,,34.2 µM,,,,,25.4 µM,22 µM,42 µM,9.65 µM,4.21 µM
CCN(CC)CCC(CNc1ccnc2cc(Cl)ccc12)c1ccc(Cl)cc1 (centres undefined),2.03 µM,11.1 µM,1.05 µM,4.89 µM,0.642 µM,2.07 µM,1.25 µM,2.77 µM,0.282 µM,0.764 µM,4.32 µM,1.92 µM,1.34 µM,1.01 µM,1.18 µM,2.69 µM,1.49 µM,4.21 µM,2.68 µM,2.32 µM
CCOC(=O)C1=CN(C)C=C(C(=O)OCC)C1c1cc(Br)c(OCC)c(OC)c1,43.5 µM,> 100 µM,> 100 µM,> 100 µM,39.9 µM,> 100 µM,> 100 µM,> 100 µM,34.5 µM,12.5 µM,> 100 µM,23.5 µM,> 100 µM,25.9 µM,69.4 µM,> 100 µM,> 100 µM,> 100 µM,> 100 µM,> 100 µM
COC(=O)COc1ccccc1/C=C1\N=C(c2ccccc2)N(c2cc(C(F)(F)F)ccc2Cl)C1=O,59.6 µM,> 100 µM,> 100 µM,> 100 µM,22.3 µM,52.8 µM,42.7 µM,> 100 µM,73.2 µM,39.5 µM,> 100 µM,29.1 µM,91.2 µM,38.2 µM,> 100 µM,> 100 µM,> 100 µM,> 100 µM,> 100 µM,> 100 µM
CCCCC#CC1=C(Br)C(=O)OC1,14 µM,38.8 µM,1.02 µM,,1.37 µM,3.1 µM,2.52 µM,14.4 µM,2.85 µM,3.99 µM,11.3 µM,5.79 µM,2 µM,0.139 µM,2.24 µM,7.1 µM,> 22.1 µM,> 31.6 µM,5.14 µM,0.327 µM
